# Experimental data from patent US11034700B2, “Substituted pyrrolidine compound and use thereof” (Takeda Pharmaceutical Company Limited, priority 2017, dated 2021).
# Molecular target: T1, human OX2 receptor (Homo sapiens, UniProt O43614)
# T1 construct: expressed in transfected cells
# T1 sequence (O43614 1-444): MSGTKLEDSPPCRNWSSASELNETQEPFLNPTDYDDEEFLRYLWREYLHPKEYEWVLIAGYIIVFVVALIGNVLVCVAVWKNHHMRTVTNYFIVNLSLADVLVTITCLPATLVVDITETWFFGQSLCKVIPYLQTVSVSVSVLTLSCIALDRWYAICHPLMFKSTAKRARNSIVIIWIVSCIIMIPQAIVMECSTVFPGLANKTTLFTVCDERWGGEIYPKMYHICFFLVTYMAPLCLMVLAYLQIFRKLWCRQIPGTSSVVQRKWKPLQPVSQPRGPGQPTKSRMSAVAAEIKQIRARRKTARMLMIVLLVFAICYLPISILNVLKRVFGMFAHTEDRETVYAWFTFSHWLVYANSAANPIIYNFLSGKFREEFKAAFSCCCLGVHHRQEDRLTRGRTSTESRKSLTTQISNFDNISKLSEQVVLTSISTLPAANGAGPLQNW
# Test: Measurement of orexin type 2 receptor agonist activity (Fluo-4 calcium fluorescence, FDSS)
# Type: cell-based
# Settings: compound at 3 μM; CHO cells forcibly expressing human OX2 receptor; DMSO = 0%, orexin A (human) 10 nM = 100%
# Source text: Experimental Example 1: Obtainment of Cell Stably Expressing Human Orexin Type 2 Receptor (hOX2R)
# To obtain a cell clone stably expressing human orexin type 2 receptor, human orexin type 2 receptor cDNA was inserted into pcDNA3.1(+) plasmid vector (Invitrogen), and a plasmid DNA for expression of human orexin type 2 receptor (pcDNA3.1(+)/hOX2R) was cloned. The plasmid DNA was introduced into CHO-dhfr cell by an electroporation method, and human orexin type 2 receptor expressing clone cells were obtained by limiting dilution method by using G418 drug resistance as a selection marker.
# Experimental Example 2: Measurement of Orexin Type 2 Receptor Agonist Activity
# CHO cells forcibly expressing human OX2 receptor were seeded in each well of 384 well black transparent bottom plate (BD Falcon) at 7,500 cells/well, and cultured for one day in a 5% CO2 incubator at 37° C. After removal of the medium in the cell plate, assay buffer A containing a calcium indicator (HESS (Life Technologies), 20 mM HEPES (Life Technologies), 0.1% BSA (Wako Pure Chemical Industries, Ltd.), 2.5 μg/mL Fluo-4 AM (DOJINDO Chemical), 0.08% Pluronic F127 (DOJINDO Chemical), 1.25 mM probenecid (DOJINDO Chemical)) was added at 30 μL/well. The plate was stood for 30 min in a 5% CO2 incubator at 37° C., and further stood at room temperature for 30 min. A test compound prepared by diluting with assay buffer B (HESS, 20 mM HEPES, 0.1% BSA) was added at 10 μL/well, and the fluorescence value was measured by FDSSμCELL (Hamamatsu Photonics K.K.) every one sec for 1 min, and thereafter every two sec for 1 min 40 sec. The activity (%) of the test compound was calculated assuming that variation in the fluorescence value when DMSO was added instead of the test compound was 0% […], and variation in the fluorescence value when orexin A (human) (PEPTIDE INSTITUTE, INC.) was added at the final concentration of 10 nM was 100% […]. The activity of each compound at the concentration of 3 μM was shown below.
row,Structure (SMILES),"OX2R agonist activity (3 μM, %) [%]"
1,"CCCS(=O)(=O)Nc1cccc(O[C@H]2CCN(C(=O)c3c(C)cccc3C)C2)c1 [Example 36, N-(3-(((3S)-1-(2,6-dimethylbenzoyl)pyrrolidin-3-yl)oxy)phenyl)propane-1-sulfonamide]",23
2,"Cc1cccc(C)c1C(=O)N1CC[C@H](Oc2cccc(NS(=O)(=O)c3ccccc3Cl)c2)C1 [Example 37, 2-chloro-N-(3-(((3S)-1-(2,6-dimethylbenzoyl)pyrrolidin-3-yl)oxy)phenyl)benzenesulfonamide]",35
3,"Cc1cccc(C)c1C(=O)N1CC[C@H](Oc2cccc(NS(=O)(=O)c3sccc3Cl)c2)C1 [Example 38, 3-chloro-N-(3-(((3S)-1-(2,6-dimethylbenzoyl)pyrrolidin-3-yl)oxy)phenyl)thiophene-2-sulfonamide]",44
4,"COc1ccc(N2CCCC3(CCCCO3)C2)cc1S(=O)(=O)Nc1cccc(O[C@H]2CCN(C(=O)c3c(C)cccc3C)C2)c1 (stereo partly drawn) [Example 41, N-(3-(((3S)-1-(2,6-dimethylbenzoyl)pyrrolidin-3-yl)oxy)phenyl)-2-methoxy-5-(1-oxa-8-azaspiro[5.5]undec-8-yl)benzenesulfonamide]",97
5,"COc1ccc(N2CCCC(C(=O)N3CCCC3)C2)cc1S(=O)(=O)Nc1cccc(O[C@H]2CCN(C(=O)c3c(C)cccc3C)C2)c1 (stereo partly drawn) [Example 42, N-(3-(((3S)-1-(2,6-dimethylbenzoyl)pyrrolidin-3-yl)oxy)phenyl)-2-methoxy-5-(3-(pyrrolidin-1-ylcarbonyl)piperidin-1-yl)benzenesulfonamide]",97
6,"COc1ccc(-c2cccc(C(=O)N(C)C)c2)cc1S(=O)(=O)Nc1cccc(CC2CCN(C(=O)c3cc(C)ccc3C)C2)n1 (centres unmarked) [Example 45, 3′-((6-((1-(2,5-dimethylbenzoyl)pyrrolidin-3-yl)methyl)pyridin-2-yl)sulfamoyl)-4′-methoxy-N,N-dimethylbiphenyl-3-carboxamide]",92
7,"COc1ccc(-c2cccc(C(=O)N(C)C)c2)cc1S(=O)(=O)Nc1cc(OC2CCN(C(=O)c3cccc(C)c3)C2)ccn1 (centres unmarked) [Example 49, 4′-methoxy-N,N-dimethyl-3′-((4-((1-(3-methylbenzoyl)pyrrolidin-3-yl)oxy)pyridin-2-yl)sulfamoyl)biphenyl-3-carboxamide]",64
8,"COc1ccc(-c2cccc(C(=O)N(C)C)c2)cc1S(=O)(=O)Nc1cccc(N(C)C2CCN(C(=O)c3cc(C)ccc3C)C2)c1 (centres unmarked) [Example 58, 3′-((3-((1-(2,5-dimethylbenzoyl)pyrrolidin-3-yl)(methyl)amino)phenyl)sulfamoyl)-4′-methoxy-N,N-dimethylbiphenyl-3-carboxamide]",104
9,"COc1ccccc1S(=O)(=O)Nc1cccc(O[C@H]2CCN(C(=O)c3cc(C)ccc3C)C2)c1 [Example 62, N-(3-(((3S)-1-(2,5-dimethylbenzoyl)pyrrolidin-3-yl)oxy)phenyl)-2-methoxybenzenesulfonamide]",69
10,"COc1ccccc1S(=O)(=O)Nc1cccc(O[C@@H]2CN(C(=O)c3cc(C)ccc3C)C[C@H]2OC)c1 [Example 63, N-(3-(((3R,4R)-1-(2,5-dimethylbenzoyl)-4-methoxypyrrolidin-3-yl)oxy)phenyl)-2-methoxybenzenesulfonamide]",112
11,"COc1ccc(-c2cccc(C(=O)N(C)C)c2)cc1S(=O)(=O)Nc1cccc(O[C@H]2CCN(C(=O)c3c(C)cccc3C)C2)c1F [Example 71, 3′-((3-(((3S)-1-(2,6-dimethylbenzoyl)pyrrolidin-3-yl)oxy)-2-fluorophenyl)sulfamoyl)-4′-methoxy-N,N-dimethylbiphenyl-3-carboxamide]",89
12,"COc1ccc(-c2cccc(C(=O)N(C)C)c2)cc1S(=O)(=O)Nc1cc(O[C@H]2CCN(C(=O)c3c(C)cccc3C)C2)ccc1F [Example 72, 3′-((5-(((3S)-1-(2,6-dimethylbenzoyl)pyrrolidin-3-yl)oxy)-2-fluorophenyl)sulfamoyl)-4′-methoxy-N,N-dimethylbiphenyl-3-carboxamide]",85
13,"COc1ccccc1S(=O)(=O)Nc1cccc(O[C@@H]2CN(C(=O)c3c(C)cccc3C)C[C@H]2OC)c1 [Example 74, N-(3-(((3R,4R)-1-(2,6-dimethylbenzoyl)-4-methoxypyrrolidin-3-yl)oxy)phenyl)-2-methoxybenzenesulfonamide]",104
14,"COc1ccccc1S(=O)(=O)Nc1cccc(O[C@@H]2CN(C(=O)C3(c4ccccc4)CC3)C[C@H]2OC)c1 [Example 76, 2-methoxy-N-(3-(((3R,4R)-4-methoxy-1-((1-phenylcyclopropyl)carbonyl)pyrrolidin-3-yl)oxy)phenyl)benzenesulfonamide]",79
15,"CCCS(=O)(=O)Nc1cccc(O[C@@H]2CN(C(=O)c3cc(C)ccc3C)C[C@H]2OC)c1 [Example 79, N-(3-(((3R,4R)-1-(2,5-dimethylbenzoyl)-4-methoxypyrrolidin-3-yl)oxy)phenyl)propane-1-sulfonamide]",76
16,"CO[C@@H]1CN(C(=O)c2cc(C)ccc2C)C[C@H]1Oc1cccc(NS(=O)(=O)C2CCOCC2)c1 [Example 81, N-(3-(((3R,4R)-1-(2,5-dimethylbenzoyl)-4-methoxypyrrolidin-3-yl)oxy)phenyl)tetrahydro-2H-pyran-4-sulfonamide]",92
17,"CO[C@@H]1CN(C(=O)c2cc(C)ccc2C)C[C@H]1Oc1cccc(NS(=O)(=O)c2ccccc2F)c1 [Example 82, N-(3-(((3R,4R)-1-(2,5-dimethylbenzoyl)-4-methoxypyrrolidin-3-yl)oxy)phenyl)-2-fluorobenzenesulfonamide]",101
18,"CO[C@@H]1CN(C(=O)c2cc(C)ccc2C)C[C@H]1Oc1cccc(NS(=O)(=O)c2sccc2Cl)c1 [Example 84, 3-chloro-N-(3-(((3R,4R)-1-(2,5-dimethylbenzoyl)-4-methoxypyrrolidin-3-yl)oxy)phenyl)thiophene-2-sulfonamide]",96
19,"COc1ccccc1S(=O)(=O)Nc1cccc(O[C@@H]2CN(C(=O)c3c(C)cccc3F)C[C@H]2OC)c1 [Example 96, N-(3-(((3R,4R)-1-(2-fluoro-6-methylbenzoyl)-4-methoxypyrrolidin-3-yl)oxy)phenyl)-2-methoxybenzenesulfonamide]",80
20,"COc1ccccc1S(=O)(=O)Nc1cccc(O[C@@H]2CN(C(=O)c3c(C)cccc3OC)C[C@H]2OC)c1 [Example 97, 2-methoxy-N-(3-(((3R,4R)-4-methoxy-1-(2-methoxy-6-methylbenzoyl)pyrrolidin-3-yl)oxy)phenyl)benzenesulfonamide]",93
